Results reported in PubChem BioAssay (NCI).
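Protocol summary: plate cells (96-well), add compound at 5 concentrations, incubate 48 h, interpolate endpoints linearly. GI50 = concentration required for 50% inhibition of growth. At the TGI there is no net growth.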

Tests used:
Assay in all cases: NCI tumour cell line growth inhibition, 48 h
HCT-116 colon = system: HCT-116 colon
SNB-19 CNS = system: SNB-19 CNS
SW-620 colon = system: SW-620 colon
TK-10 renal = system: TK-10 renal
COLO 205 colon = system: COLO 205 colon
UACC-62 melanoma = system: UACC-62 melanoma
A498 renal = system: A498 renal
NCI-H226 lung = system: NCI-H226 lung
OVCAR-5 ovarian = system: OVCAR-5 ovarian
UACC-257 melanoma = system: UACC-257 melanoma

For `CCN(CCO)C(=O)C1(c2ccccc2)CCCCC1`, the TGI (HCT-116 colon) was over 10 µM, the TGI (SNB-19 CNS) was over 10 µM and the TGI (SW-620 colon) was over 10 µM. The TGI (TK-10 renal) was over 10 µM, the TGI (COLO 205 colon) was over 10 µM and the TGI (UACC-62 melanoma) was over 10 µM. For the same compound, the TGI (A498 renal) was over 10 µM, the TGI (NCI-H226 lung) was over 10 µM and the TGI (OVCAR-5 ovarian) was over 10 µM.
`Ic1ccc2c(c1)N(c1ccccc1)c1cc(N=c3ccc4nc5ccc(I)cc5n(-c5ccccc5)c-4c3)ccc1N2` gave a TGI (HCT-116 colon) of over 100 µM, a TGI (SNB-19 CNS) of over 100 µM and a TGI (SW-620 colon) of over 100 µM. The TGI (TK-10 renal) was over 100 µM, the TGI (COLO 205 colon) was 71.5 µM and the TGI (UACC-257 melanoma) was over 100 µM. It also gave a TGI (UACC-62 melanoma) of over 100 µM, a TGI (A498 renal) of over 100 µM and a TGI (NCI-H226 lung) of over 100 µM. It also gave a TGI (OVCAR-5 ovarian) of over 100 µM.
`OCCCNc1nc(=S)[nH]c2[nH]ncc12` was tested, and the GI50 (SNB-19 CNS) was over 100 µM, the TGI (SNB-19 CNS) was over 100 µM and the GI50 (SW-620 colon) was 44.3 µM. It also gave a TGI (SW-620 colon) of over 100 µM, a GI50 (TK-10 renal) of 33.6 µM and a TGI (TK-10 renal) of over 100 µM. The GI50 (COLO 205 colon) was 29.3 µM, the TGI (COLO 205 colon) was over 100 µM and the GI50 (UACC-257 melanoma) was 68 µM. It also gave a TGI (UACC-257 melanoma) of over 100 µM, a GI50 (UACC-62 melanoma) of 30 µM and a TGI (UACC-62 melanoma) of over 100 µM. It also gave a GI50 (A498 renal) of 13.3 µM, a TGI (A498 renal) of 48.2 µM and a GI50 (NCI-H226 lung) of 27.6 µM. The TGI (NCI-H226 lung) was 72.6 µM, the GI50 (OVCAR-5 ovarian) was 45.8 µM and the TGI (OVCAR-5 ovarian) was over 100 µM.
With `CC(CCC(=O)O)(c1ccc(O)cc1)c1ccc(O)cc1` the TGI (HCT-116 colon) was over 100 µM, the TGI (SNB-19 CNS) was over 100 µM and the TGI (SW-620 colon) was over 100 µM. It also gave a TGI (TK-10 renal) of over 100 µM, a TGI (UACC-257 melanoma) of over 100 µM and a TGI (UACC-62 melanoma) of over 100 µM. It also gave a TGI (A498 renal) of over 100 µM, a TGI (NCI-H226 lung) of over 100 µM and a TGI (OVCAR-5 ovarian) of over 100 µM.
Compound `C[N+](C)(C)CCCSc1nc2ccccc2[nH]1` has a TGI (HCT-116 colon) of over 100 µM, a TGI (SNB-19 CNS) of over 100 µM and a TGI (SW-620 colon) of over 100 µM. For the same compound, the TGI (TK-10 renal) was over 100 µM, the TGI (COLO 205 colon) was over 100 µM and the TGI (UACC-257 melanoma) was over 100 µM. It also gave a TGI (UACC-62 melanoma) of over 100 µM, a TGI (A498 renal) of over 100 µM and a TGI (NCI-H226 lung) of over 100 µM. It also gave a TGI (OVCAR-5 ovarian) of over 100 µM.
With `O=S(=O)(O)C1=C2Sc3ccccc3N=C2c2ccccc2C1` the TGI (HCT-116 colon) was 28.5 µM, the TGI (SNB-19 CNS) was 51.6 µM and the TGI (SW-620 colon) was 29.8 µM. It also gave a TGI (TK-10 renal) of 32.9 µM, a TGI (COLO 205 colon) of 30.3 µM and a TGI (UACC-257 melanoma) of 31.4 µM. For the same compound, the TGI (UACC-62 melanoma) was 26.4 µM, the TGI (A498 renal) was 32.8 µM and the TGI (NCI-H226 lung) was 35.5 µM. It also gave a TGI (OVCAR-5 ovarian) of 34.5 µM.
With `COc1ccc(CC2CCc3nc(N)nc(N)c3C2)cc1OC` (stereo not drawn) the TGI (HCT-116 colon) was over 100 µM, the TGI (SNB-19 CNS) was over 89 µM and the TGI (SW-620 colon) was over 100 µM. The TGI (TK-10 renal) was over 100 µM, the TGI (COLO 205 colon) was 36 µM and the TGI (UACC-257 melanoma) was over 54.4 µM. It also gave a TGI (UACC-62 melanoma) of over 36.9 µM, a TGI (A498 renal) of over 100 µM and a TGI (NCI-H226 lung) of 42.4 µM. The TGI (OVCAR-5 ovarian) was over 100 µM.
Compound `c1nc(N2CC2)c2cnn(C3CCCCO3)c2n1` (stereo not drawn) has a TGI (HCT-116 colon) of over 100 µM, a TGI (SNB-19 CNS) of over 100 µM and a TGI (SW-620 colon) of over 100 µM. For the same compound, the TGI (TK-10 renal) was over 100 µM, the TGI (COLO 205 colon) was over 100 µM and the TGI (UACC-257 melanoma) was over 100 µM. The TGI (UACC-62 melanoma) was over 100 µM, the TGI (A498 renal) was over 100 µM and the TGI (NCI-H226 lung) was over 100 µM. The TGI (OVCAR-5 ovarian) was over 100 µM.
With `CN(CCC(=O)O)C1=Nc2ccc(Cl)cc2C(c2ccccc2)=[N+]([O-])C1` the TGI (HCT-116 colon) was over 100 µM, the TGI (SNB-19 CNS) was over 100 µM and the TGI (SW-620 colon) was over 100 µM. It also gave a TGI (TK-10 renal) of over 100 µM, a TGI (COLO 205 colon) of over 100 µM and a TGI (UACC-257 melanoma) of over 100 µM. For the same compound, the TGI (UACC-62 melanoma) was over 100 µM, the TGI (A498 renal) was over 100 µM and the TGI (NCI-H226 lung) was over 100 µM. For the same compound, the TGI (OVCAR-5 ovarian) was over 100 µM.
Work on `CCOC(=O)NC(=O)c1cn(CCNCCO)c(=O)[nH]c1=O` yielded a TGI (HCT-116 colon) of over 100 µM, a TGI (SNB-19 CNS) of over 100 µM and a TGI (SW-620 colon) of over 100 µM. The TGI (COLO 205 colon) was over 100 µM, the TGI (UACC-62 melanoma) was over 100 µM and the TGI (NCI-H226 lung) was over 100 µM. The TGI (OVCAR-5 ovarian) was over 100 µM.
`O=C(N/N=C/C=C/c1ccccc1)[C@H](O)[C@@H](O)C(=O)N/N=C/C=C/c1ccccc1` was tested, and the TGI (HCT-116 colon) was over 100 µM, the TGI (SNB-19 CNS) was over 100 µM and the TGI (SW-620 colon) was over 100 µM. The TGI (TK-10 renal) was over 100 µM, the TGI (COLO 205 colon) was over 100 µM and the TGI (UACC-257 melanoma) was over 100 µM. It also gave a TGI (UACC-62 melanoma) of over 100 µM, a TGI (A498 renal) of over 100 µM and a TGI (OVCAR-5 ovarian) of over 100 µM.
Compound `C[C@]12CC[C@H](OC(=O)Cc3ccc(N(CCCl)CCCl)cc3)CC1=CC[C@@H]1[C@@H]2CC[C@]2(C)C(=O)CC[C@@H]12` has a TGI (SNB-19 CNS) of over 100 µM, a TGI (SW-620 colon) of over 100 µM and a TGI (TK-10 renal) of over 100 µM. It also gave a TGI (COLO 205 colon) of over 100 µM, a TGI (UACC-257 melanoma) of over 100 µM and a TGI (A498 renal) of over 100 µM. For the same compound, the TGI (NCI-H226 lung) was over 100 µM and the TGI (OVCAR-5 ovarian) was over 100 µM.
`CN1CCN(c2ccc3[nH]c(-c4cc(O)c5c(nc(CO)n5C)c4O)nc3n2)CC1` showed a TGI (HCT-116 colon) of over 100 µM, a TGI (SNB-19 CNS) of over 100 µM and a TGI (SW-620 colon) of over 100 µM. It also gave a TGI (COLO 205 colon) of 43.3 µM, a TGI (UACC-257 melanoma) of over 100 µM and a TGI (UACC-62 melanoma) of 27.8 µM. For the same compound, the TGI (NCI-H226 lung) was 96.5 µM and the TGI (OVCAR-5 ovarian) was over 100 µM.
With `O=C(O)CCC(=O)Nc1ccc2ccccc2c1` the TGI (HCT-116 colon) was over 100 µM, the TGI (SNB-19 CNS) was over 100 µM and the TGI (SW-620 colon) was over 100 µM. For the same compound, the TGI (TK-10 renal) was over 100 µM, the TGI (COLO 205 colon) was over 100 µM and the TGI (UACC-257 melanoma) was over 100 µM. It also gave a TGI (UACC-62 melanoma) of over 100 µM, a TGI (A498 renal) of over 100 µM and a TGI (NCI-H226 lung) of over 100 µM. For the same compound, the TGI (OVCAR-5 ovarian) was over 100 µM.
